Experiments:
male Balb/c mice = assay: Territorial Resident/Intruder aggression test; assay type: in vivo
Description: Data presented in this report indicate that long-term expression of Peptide YY3-36, an agonist of NPY Y receptors with higher affinity for the Y2 receptor, abolish aggressive behavior in mice. To test these observations, we used the territorial Resident/Intruder (R/I) aggressive paradigm (6), a standard test for evaluating rodent aggressive behavior. The test was applied on three different occasions using different intruders. Tests were recorded and analyzed in a blind manner using the Observer v5.0 software (Noldus Information Technology) (see videos, Supplementary data) (7).
Behavioral studies: Aggression territorial-Intruder test were performed on week 24 after the treatment (6). Briefly, PYY-, or GFP-treated resident mice were individually housed for at least two weeks prior to testing. Bedding from cages was not changed during the testing period to avoid unnecessary stress. On the day of the experiment, a smaller size intruder was placed into the resident cage for 10 minutes and the resident's behavior was recorded with a video camera. Each experiment was repeated 3 times on three different occasions and with different intruders. The videos from the experiments were analyzed for non-aggressive and aggressive behavior by an expert in a blind manner using The Observer v5.0 software (Noldus Information Technology) (7).
Data was reported in mean±SEM.

mice = assay: PYY mouth spray, food intake after 24 hours fasting; assay type: in vivo
Description: Synthetic PYY was purchased from Bachem, Inc USA (Cat #H-6042) and diluted in sterile H2O. Sterile un-used perfume sample vials (Saphora) were utilized to administer PYY in the form of a mouth spray. It was estimated that the volume of one spray approximates to about […].
Mice were conditioned three times to 24 hours fasting starting at the beginning of the dark cycle and ending at the end of the light cycle. At the end of the fasting cycle and as a part of conditioned routine, a sterile water spray had been administered into the mouth. All the experiments were done during the first hour of the dark cycle after fasting. Once the dark cycle started, mice were sprayed once with either PYY or sterile H2O in a total volume of […] per spray. After the treatment, mice were returned to their cages and ten minutes later pre-weighted chow was provided. One hour later, the amount of consumed chow had been recorded by measuring the leftover amount. When the experiments were repeated, mice were fasted only once a week with the control and experimental groups rotated.

Substance | chase duration (male Balb/c mice; vs control mice) | chase events (male Balb/c mice; vs control mice) | attack duration (male Balb/c mice; vs controls) | attack latency (male Balb/c mice; vs controls) | normal social interactions manifested by sniffing (male Balb/c mice; vs controls) | threat duration (male Balb/c mice; vs controls) | threat events (male Balb/c mice; vs controls) | attack events (male Balb/c mice; week 24 after treatment, n=5, mean±SEM) | decrease in the number of attack events compared to controls (male Balb/c mice; week 24 after treatment, n=5, p<0.05) | dose response of PYY mouth spray on FI after one hour (mice; mouth spray) | less food consumed in one hour compared to H2O spray control (mice; one mouth spray, 5 ug per 100 g of body weight, after 24 h fasting, average, P=0.03)
PYY3-36: endogenous NPY Y2 receptor agonist; salivary level raised long-term by rAAV-PYY in the treated mice | decrease | decrease | significant decrease | significant increase | did not change | significant decrease | significant decrease | 0.07±0.067 events per 10 min | 44 fold |  | 
PYY: Synthetic PYY purchased from Bachem (Cat #H-6042), diluted in sterile H2O, given as a mouth spray [Peptide YY] |  |  |  |  |  |  |  |  |  | significant PYY dose response effect | 15%

— patent US12109251B2, “Satiation peptide administration” (University of Florida Research Foundation, Incorporated, priority 2009, dated 2024)
